Laboratory results: a melting point compilation (Tetko et al.; mined from patent text by program, amines drawn as free bases though some values may be those of a salt)

SMILES	melting point [°C]
Cc1sc(N)nc1-c1cccc2ccccc12	194 to 195
O=C(Sc1ccccn1)c1ccc(Br)cc1	69 to 70
COc1ccc(CO)cc1OCc1nc(-c2ccccc2)oc1C	144 to 145
CC(C)CNC(=O)COc1ccn2nc(-c3ccccc3)c(-c3ccc(=O)n(C(C)C)n3)c2c1	168
CCOC(=O)c1c(Cl)nn(C)c1S(=O)(=O)NC(=O)OC	107 to 110
COc1ccc2c(c1)c1c(n2Cc2ccccc2)CCCC1C(=O)N1CCN(c2ccccc2)CC1 (stereo unspecified)	142 to 143
O=c1[nH]c(NCCCOc2cccc(CN3CCCCC3)c2)ncc1CCCc1ccccc1	104 to 108
Cc1ccc(-c2nn(-c3ccccc3)c(N)c2C#N)cc1	186 to 188
CCN1CCCC1CNC(=O)c1nc(Cl)c(N)nc1OC (stereo unspecified)	155
CC1=C2C(=O)N(O)C(=O)c3cccc(c32)C(=NO)C1O (stereo unspecified)	302 to 304
COC(=O)c1cccc(-c2ccccc2C#N)c1	83 to 85
CC(C)c1ccc(-c2nn(C)c(=O)c3ccccc23)cc1	107 to 108
CNC(=O)N1CCc2cc(OC)c(OC)c(O)c2C1Cc1cccc(OC)c1 (stereo unspecified)	75 to 80
CS(=O)(=O)C(=C1CN(C(c2ccccc2)c2ccccc2)C1)c1ccccc1Cl	204
Fc1cc2ccc(CBr)nc2cc1F	113 to 115
N#CC(c1ccc(Cl)c(Cl)c1)c1c(Cl)cc(NN)cc1Cl (stereo unspecified)	183 to 185
Cc1nc2ccccc2n1Cc1c(F)cccc1F	99
COc1cc(-c2ccc(C)cc2)cc2oc(=O)c(C)c(C)c12	123
Cc1ncnc(Nc2ccc(C(=O)CCC3CCN(Cc4ccccc4)CC3)cc2)c1C	168 to 170
CCCCc1oc2ccccc2c1C(=O)N(Cc1ccccc1)Cc1ccc(-c2ccc(OC)c(Br)c2)cc1	145 to 148
COc1cc(C(=O)N2CCN(C(=O)CNC3CCN(Cc4ccccc4)CC3)C(c3ccc(Cl)c(Cl)c3)C2)cc(OC)c1OC (racemic)	67 to 70
CN1CCOc2c(C(=O)O)cc(Cl)cc21	202 to 204
CSc1nnc(-c2cc3c(Oc4ccc(Cl)cc4)cncc3s2)o1	158 to 160
CC(C)(C)C(OC(=O)Cl)C(Oc1ccc(Cl)cc1)N1CN=CN1 (stereo unspecified)	75 to 80

SMILES	melting point [°C]
Cn1cc(-c2cccc(C(F)(F)F)c2)c(=O)c(-n2cncn2)c1	181 to 183
COc1cc(Nc2c(C#N)cnc3cc(/C=C/C(=O)O)ccc23)c(Cl)cc1Cl	237 to 240
CCCCc1c(OC(=O)C(C)(C)C)n(-c2ccc(OC(C)=O)cc2)n(-c2ccccc2)c1=O	151 to 158
NC[C@H]1COc2ccc(Cl)c(-c3ccccc3C(F)(F)F)c2O1	84
Cc1cc(-c2nc3cc(Cl)cc(CCc4ccccn4)c3o2)[nH]n1	205 to 220
CCC(N)CCCCCCCCC(C)(C)C(=O)O (stereo unspecified)	164 to 165
COC(=O)c1ccccc1S(=O)(=O)NC(=O)n1nc(SC)n(C)c1=O	184
COC12CC(c3nnc(-c4cncc(Br)c4)[nH]3)CN(C)C1Cc1c[nH]c3cccc2c13 (stereo unspecified)	142 to 146
O=C(c1ccc(O)cc1)c1sc2cc(O)ccc2c1-c1ccccc1	198 to 200
COC(=O)c1ccc(COc2cc(F)ccc2N)c(F)c1	92 to 95
Cc1nc(-c2ccc(Br)cc2)n(-c2ccc(S(C)(=O)=O)cc2)n1	208 to 209
Cc1nc2ccccc2n2c(-c3cc(OCC(O)c4ccccn4)ccc3Cl)nnc12 (stereo unspecified)	193 to 194
COC(=O)c1ccc(C#CC(C)(O)c2ccc3c(c2)C(C)(C)CCC3(C)C)cc1O (stereo unspecified)	110 to 115
COc1ccc(C(=O)Nc2ccccc2)cc1NCc1cccs1	195 to 197
OCc1cc2c(N=C3SC[C@@H]4Cc5ccccc5CN34)cccc2cn1	210
O=C(O)C1CN(Cc2ccc(OCc3ccc(Cl)c(Cl)c3)cc2)C1	166
CCOC(=O)C(=O)c1c[nH]c2c(CC)cccc12	152 to 154
CC(C)(C)OC(=O)N(Cc1ccccc1)c1ccc(O)cc1	228 to 230
CN(C(=O)C(F)(F)F)C1Cc2ccc(C(=O)CCl)cc2C1 (stereo unspecified)	130 to 131
O=C1N(Cc2ccccn2)c2ccccc2C12COc1ccc3c(c12)OCCO3 (stereo unspecified)	132 to 134
CCOC(=O)c1cccc(-c2ccc(Cl)c3cc(Cc4ccc(F)c(F)c4)sc23)c1	124 to 125
CN1CCN(c2cc(Br)cc3c2c(=O)n(Cc2ccccc2)c(=O)n3Cc2ccccc2)CC1	80 to 84
C=C(C)COc1ccc(Br)cc1CN(CC)c1ccc(-c2cc(O)n(C)n2)nn1	151 to 152
Cc1nnc(-c2ccc3occ(-c4ccc(S(=O)Cc5ccccc5)cc4)c3c2)o1 (stereo unspecified)	183 to 184

SMILES	melting point [°C]
CCOC(=O)CN1Cc2ccccc2C[C@H](NC(=O)OCc2ccccc2)C1=O	80 to 82
O=C(C1CC1)N1CCc2cc(S(=O)(=O)N3CCN(c4cccc(Cl)c4)CC3)ccc21	162 to 163
CC1=C(C(=O)OC(C)(C)C)C(c2ccccc2Cl)c2c[nH]nc2N1 (stereo unspecified)	207
CC1=CC(COC(c2ccccc2)(c2ccccc2)c2ccccc2)OC1O (stereo unspecified)	100 to 102
CCCOc1nc(C(F)(F)F)cc(=O)n1-c1cc(O)c(Cl)cc1F	122 to 123
CCCc1cc(NC(=O)N2CCN(c3cc(OC)cc(OC)c3)CC2)c(OC)nc1C	82 to 84
CS(=O)(=O)Nc1ccc(/C=C\COCCCCCCNCC(O)c2cc(O)cc(O)c2)cc1 (stereo unspecified)	79 to 82
COc1ccc(N)c(C2Cc3ccccc3N2)c1 (stereo unspecified)	120 to 123
Nc1cc(-c2c(-c3ccc(Cl)cc3)nc3ccc(N4CC5CNCC5C4)nn23)ccn1 (stereo unspecified)	267 to 270
Cc1[nH]n(Cc2ccc(C(N)=O)cc2)c2nc(-c3ccncc3)nc(=O)c1-2	> 300
N=C(NC(=O)c1ccc2ccccc2c1)c1ccc(N2CC(CN3CCN(CCC(=O)O)CC3)OC2=O)cc1 (stereo unspecified)	80 to 83
CCSc1cc(C)nc(SCC)c1NC(=O)CCCCCCCSc1nc2ccccc2o1	82 to 84
Cc1nnc(-c2ccc3occ(-c4ccc(OCS(C)(=O)=O)cc4)c3c2)o1	198 to 199
Cc1cccc(N2Cc3nc(CO)nn3-c3ccccc32)c1C	186 to 194
COc1cc(-c2nc(NC(=O)c3c(C)c4cc(C)ccc4n3CC(=O)O)sc2CCC2CCCCC2)c(OC)cc1Cl	151 to 160
CCCn1nc2c(N)nc3ccccc3c2c1CC(C)(C)NC(=O)CC	158 to 159
Cc1cc(NS(=O)(=O)c2cccs2)c2[nH]c(C3=NCCS3)cc2c1C	201 to 202
CC(=O)N1CCCN(NC(=O)c2ccc(F)cc2)CC1	117 to 119
Cc1nc2c(N)nc3ccccc3c2n1C	288 to 290
O=C(CBr)Nc1ccccc1	131 to 135
CCOC(=O)c1ccc(N=C(Nc2ccc(C(=O)OCC)cc2)c2cccc(Cl)c2)cc1	160 to 170
CCC1(C(=O)C(=O)NC(C)(C)C)CC1	37.5 to 39
O=C1C(=CO)CSc2c(Cl)cccc21	97 to 99
